Results taken from paper PMC11992225, “Antibacterial compounds against non-growing and intracellular bacteria” (npj Antimicrobials and Resistance, 2025).
“And” between values parts separate entries of the source, which are not always exact repeats. Equal values may be shown once.

Experiments:
[1] = tested on: non-growing S. aureus DSM2569; test: Dose-dependent killing analysis (CFU spot-plating) of stationary-phase S. aureus; format: cell-based, Staphylococcus aureus; conditions: for log10(CFU/ml) after treatment / Δlog10(CFU/ml): S. aureus; for log10(CFU/ml) after treatment: individual replicates; for Δlog10(CFU/ml): average killing vs before treatment (9,097)
Method in brief: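 Stationary-phase S. aureus DSM2569 was grown and treated for 24 h in 1:4 CA-MHB at pH 7.4. Treated samples were serially diluted 10-fold in PBS and spot-plated on LB agar, which was incubated overnight at 37 °C. Survivors were counted as CFU over three biological replicates.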

[2] = tested on: non-growing UPEC CFT073; test: Dose-dependent killing analysis (CFU spot-plating) of stationary-phase UPEC; format: cell-based, Escherichia coli; conditions: for log10(CFU/ml) after treatment: individual replicates
Method in brief: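 Non-growing (stationary-phase) UPEC CFT073 treated with compounds in 96-well format at 200 μl, then 10-fold serially diluted in PBS and 10 μl spots plated on LB agar. Plates incubated overnight at 37 °C; colonies counted at lowest resolvable dilution to give CFU. Three biological replicates.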

[3] = tested on: SOS response in UPEC CFT073; test: SOS response induction analysis, pAED2 cda' promoter mScarlet-I reporter; format: cell-based, Escherichia coli
Protocol: Since we aimed to test SOS induction in non-growing cultures, it was essential to use a reporter with no leaky expression in the stationary phase. Therefore, we constructed the plasmid pAED2, based on the low copy-number plasmid pSC101, which contains the cda’ promoter in front of the mScarlet-I-encoding reporter gene.
Overnight cultures of CFT073 harboring a reporter plasmid were grown in 3 ml of LB supplemented with 100 µg/ml carbenicillin (Cb), then diluted 1:100 into the medium used for testing. For validation of the pANO1::cda’ reporter, an overnight culture was diluted into CA-MHB (supplemented with 40 mM HEPES, pH 7.4, and 100 µg/ml Cb) and grown to an OD600 ≈ 0.5 at 37 °C with shaking at 200 rpm in an Erlenmeyer flask. […] Empty wells were filled with water. […] The experiment was performed in triplicate.
For analysis of the SOS induction by anti-cancer compounds, the overnight cultures were diluted either into 1:4 diluted CA-MHB (40 mM HEPES, pH 7.4) or LPM (30 mM MES, pH 5.5) that were supplemented with 100 µg/ml Cb. For analysis of the effect on growing bacteria, the cultures were incubated at 37 °C with shaking at 200 rpm in Erlenmeyer flasks for 90 min, to an OD600 ≈ 0.5. Then, 180 μl aliquots were transferred to 96-well plates, and 20 μl of the 200 μM drug solution was added to achieve a final concentration of 20 μM. The plates were incubated in a microplate reader (BioTek Synergy H1) at 37 °C with continuous shaking for 6 h. OD600 and mScarlet fluorescence were recorded throughout the incubation.
For analysis of the effect of anti-cancer compounds on stationary phase- and regrowing bacteria, the cultures were incubated for 24 h at 37 °C with shaking at 200 rpm in Erlenmeyer flasks. […] The samples were incubated for 24 h at 37 °C in standing 1.5 ml tubes. Before and after the drug treatment, 25 μl aliquots were taken and diluted by mixing with 175 μl PBS. OD600 and mScarlet fluorescence were recorded using a microplate reader (BioTek Synergy H1).
After the treatment, stationary-phase bacteria were harvested by centrifugation at 5000 × g for 5 min at 20 °C, washed twice with PBS, and resuspended in 475 μl PBS.

CC1COc2c(N3CCN(C)CC3)c(F)cc3c(=O)c(C(=O)O)cn1c23 (stereo not shown) [Ofloxacin]
log10(CFU/ml) after treatment ([1]; concentration 0.1): 9.279 log10(CFU/ml) and 9.041 log10(CFU/ml) and 9.086 log10(CFU/ml) | log10(CFU/ml) after treatment ([1]; concentration 0.5): 9.301 log10(CFU/ml) and 9.049 log10(CFU/ml) and 8.462 log10(CFU/ml) | log10(CFU/ml) after treatment ([1]; concentration 2.5): 9.230 log10(CFU/ml) and 9.093 log10(CFU/ml) and 8.740 log10(CFU/ml) | log10(CFU/ml) after treatment ([1]; concentration 10): 9.447 log10(CFU/ml) and 8.924 log10(CFU/ml) and 8.839 log10(CFU/ml) | log10(CFU/ml) after treatment ([2]; E. coli in 1:4 CA-MHB (pH 7.4), concentration 0.25): 9.204 log10(CFU/ml) and 8.602 log10(CFU/ml) and 8.778 log10(CFU/ml) | log10(CFU/ml) after treatment ([2]; E. coli in 1:4 CA-MHB (pH 7.4), concentration 0.5): 9.041 log10(CFU/ml) and 8.301 log10(CFU/ml) and 8.699 log10(CFU/ml) | log10(CFU/ml) after treatment ([2]; E. coli in 1:4 CA-MHB (pH 7.4), concentration 1): 9.204 log10(CFU/ml) and 8.778 log10(CFU/ml) and 8.602 log10(CFU/ml) | log10(CFU/ml) after treatment ([2]; E. coli in 1:4 CA-MHB (pH 7.4), concentration 2.5): 9.204 log10(CFU/ml) and 8.845 log10(CFU/ml) and 8.699 log10(CFU/ml) | log10(CFU/ml) after treatment ([2]; E. coli in 1:4 CA-MHB (pH 7.4), concentration 5): 8.477 log10(CFU/ml) (2×) and 8.301 log10(CFU/ml) | log10(CFU/ml) after treatment ([2]; E. coli in 1:4 CA-MHB (pH 7.4), concentration 10): 8.544 log10(CFU/ml) and 8.230 log10(CFU/ml) and 8.176 log10(CFU/ml) | SOS induction during recovery of treated non-growing UPEC ([3]; 10 μM, 24 h, then washed and diluted in CA-MHB, single control experiment): SOS induction during recovery

Bleomycin
Log10(CFU/ml), Replicate #1 [1]: 6.114 Log10(CFU/ml) and 7.898 Log10(CFU/ml) and 8.934 Log10(CFU/ml) and 8.881 Log10(CFU/ml) | Log10(CFU/ml), Replicate #2 [1]: 6.845 Log10(CFU/ml) and 8.447 Log10(CFU/ml) and 8.959 Log10(CFU/ml) and 9.255 Log10(CFU/ml) | Log10(CFU/ml), Replicate #3 [1]: 6.863 Log10(CFU/ml) and 8.431 Log10(CFU/ml) and 8.778 Log10(CFU/ml) and 8.944 Log10(CFU/ml) | Δlog10(CFU/ml) ([1]; 0.1 μM): 0.070 log10(CFU/ml) | Δlog10(CFU/ml) ([1]; 0.5 μM): 0.206 log10(CFU/ml) | Δlog10(CFU/ml) ([1]; 2.5 μM): 0.838 log10(CFU/ml) | Δlog10(CFU/ml) ([1]; 10 μM): 2.490 log10(CFU/ml) | Δlog10(CFU/ml) ([2]; E. coli in 1:4 CA-MHB (pH 7.4), 0.25 μM, average killing vs before treatment (8.977)): 0.270 log10(CFU/ml) | Δlog10(CFU/ml) ([2]; E. coli in 1:4 CA-MHB (pH 7.4), 0.5 μM, average killing vs before treatment (8.977)): 0.232 log10(CFU/ml) | Δlog10(CFU/ml) ([2]; E. coli in 1:4 CA-MHB (pH 7.4), 1 μM, average killing vs before treatment (8.977)): 0.145 log10(CFU/ml) | Δlog10(CFU/ml) ([2]; E. coli in 1:4 CA-MHB (pH 7.4), 2.5 μM, average killing vs before treatment (8.977)): 0.654 log10(CFU/ml) | Δlog10(CFU/ml) ([2]; E. coli in 1:4 CA-MHB (pH 7.4), 5 μM, average killing vs before treatment (8.977)): 1.149 log10(CFU/ml) | Δlog10(CFU/ml) ([2]; E. coli in 1:4 CA-MHB (pH 7.4), 10 μM, average killing vs before treatment (8.977)): 1.686 log10(CFU/ml) | Δlog10(CFU/ml) ([2]; E. coli in LPM (pH 5.5), 0.25 μM, average killing vs before treatment (7.350)): 0.339 log10(CFU/ml) | Δlog10(CFU/ml) ([2]; E. coli in LPM (pH 5.5), 0.5 μM, average killing vs before treatment (7.350)): 0.181 log10(CFU/ml) | Δlog10(CFU/ml) ([2]; E. coli in LPM (pH 5.5), 1 μM, average killing vs before treatment (7.350)): 0.347 log10(CFU/ml) | Δlog10(CFU/ml) ([2]; E. coli in LPM (pH 5.5), 2.5 μM, average killing vs before treatment (7.350)): 0.457 log10(CFU/ml) | Δlog10(CFU/ml) ([2]; E. coli in LPM (pH 5.5), 5 μM, average killing vs before treatment (7.350)): 1.004 log10(CFU/ml) | Δlog10(CFU/ml) ([2]; E. coli in LPM (pH 5.5), 10 μM, average killing vs before treatment (7.350)): 1.335 log10(CFU/ml) | Log10(CFU/ml), Replicate #1 ([2]; pH 5.5): 5.301 Log10(CFU/ml) and 5.477 Log10(CFU/ml) and 6.204 Log10(CFU/ml) and 6.279 Log10(CFU/ml) and 6.491 Log10(CFU/ml) and 6.477 Log10(CFU/ml) | Log10(CFU/ml), Replicate #2 ([2]; pH 5.5): 5.568 Log10(CFU/ml) and 6.114 Log10(CFU/ml) and 6.778 Log10(CFU/ml) (2×) and 6.903 Log10(CFU/ml) and 6.477 Log10(CFU/ml) | Log10(CFU/ml), Replicate #3 ([2]; pH 5.5): 7.176 Log10(CFU/ml) and 7.447 Log10(CFU/ml) and 7.699 Log10(CFU/ml) and 7.954 Log10(CFU/ml) and 8.114 Log10(CFU/ml) and 8.079 Log10(CFU/ml) | Log10(CFU/ml), Replicate #1 ([2]; pH 7.4): 7.903 Log10(CFU/ml) and 8.362 Log10(CFU/ml) and 8.903 Log10(CFU/ml) and 9.462 Log10(CFU/ml) and 9.362 Log10(CFU/ml) and 9.114 Log10(CFU/ml) | Log10(CFU/ml), Replicate #2 ([2]; pH 7.4): 6.556 Log10(CFU/ml) and 7.279 Log10(CFU/ml) and 7.954 Log10(CFU/ml) and 8.778 Log10(CFU/ml) and 8.699 Log10(CFU/ml) and 8.301 Log10(CFU/ml) | Log10(CFU/ml), Replicate #3 ([2]; pH 7.4): 7.415 Log10(CFU/ml) and 7.845 Log10(CFU/ml) and 8.114 Log10(CFU/ml) and 8.255 Log10(CFU/ml) and 8.176 Log10(CFU/ml) | induction of the SOS response in growing UPEC cultures ([3]; 20 μM, 6 h, MMC, BLE, ECH in 1:4 CA-MHB pH 7.4, PLI, SAT, EVO in LPM pH 5.5): induced the SOS response
